Our source for the IC90 values is patent US6204262A, “1,3-Benzodiazepin-2-ones and 1,3-Benzoxazepin-2-ones useful as HIV reverse transcriptase inhibitors” (DuPont Pharmaceuticals Company, priority 1999, dated 2001).

Converted amounts (≈) assume the structure as drawn.

The assay has as its system HIV-1 (RF). As to the kind of experiment: Microplate based compound evaluation in HIV-1 infected MT-2 cells (HIV RNA assay). Particulars: Human immunodeficiency virus 1, MT2, 72 h; HIV-1 (RF) infected MT-2 cells, 3 days at 37° C.; virus inoculum standardized on ddC; read-out: IC90 value (concentration of compound required to reduce the HIV RNA level by 90%). It counts as cell-based. The method, then: Plasmid pDAB 72 containing both gag and pol sequences of BH10 (bp 113-1816) cloned into PTZ 19R was prepared according to Erickson-Viitanen et al. AIDS Research and Human Retroviruses 1989, 5, 577. The plasmid was linearized with Bam HI prior to the generation of in vitro RNA transcripts using the Riboprobe Gemini system II kit (Promega) with T7 RNA polymerase. Synthesized RNA was purified by treatment with RNase free DNAse (Promega), phenol-chloroform extraction, and ethanol precipitation. RNA transcripts were dissolved in water, and stored at -70° C. The concentration of RNA was determined from the A260.
Biotinylated capture probes were purified by HPLC after synthesis on an Applied Biosystems (Foster City, Calif.) DNA synthesizer by addition of biotin to the 5' terminal end of the oligonucleotide, using the biotin-phosphoramidite reagent of Cocuzza, Tet. Lett. 1989, 30, 6287. […]
MT-2 and MT-4 cells were maintained in RPMI 1640 supplemented with 5% fetal calf serum (FCS) for MT-2 cells or 10% FCS for MT-4 cells, 2 mM L-glutamine and 50 μg/mL gentamycin, all from Gibco. […] Infectious titers of HIV-1(RF) stocks were 1-3×10^7 PFU (plaque forming units)/mL as measured by plaque assay on MT-2 cells (see below). […]

Consider `Nc1ccn([C@H]2CC[C@@H](CO)O2)c(=O)n1` [ddC, 2',3'-dideoxycytidine], for which the IC90 was 0.2 µg/mL (≈ 0.947 µM).
